Experimental data taken from patent EP2233566A1, “Generation of pancreatic progenitor cells” (Vrije Universiteit Brussel, priority 2009, dated 2010).

Tested on: human embryonic stem cells-derived definitive endoderm
Test: Hepatic differentiation (AFP / albumin expression) of hES cell-derived definitive endoderm
Format: cell-based
Description: Cells were split in 4-well plates and differentiation performed in five stages as previously published (D'Amour et al. 2006 (supra); Table 2). Briefly, for DE induction 80% confluent cultures were washed with PBS and treated with 100 ng/ml Activin-A (RnD Systems) and 25 ng/ml Wnt3a (RnD Systems) for 24h in RPMI (Invitrogen) supplemented with antibiotics and Glutamax; then they were further treated with 100 ng/ml Activin-A in RPMI containing 0.2% FBS (PAA Laboratories) for 48h. PGT stage cells were treated with 50 ng/ml FGF10 (RnD Systems), 250 nM KAAD-Cyclopamine (Calbiochem) and 2% FBS in RPMI medium for 3 or 4 days. In the PFG stage (3-4 days), the medium was changed to DMEM supplemented with Glutamax, antibiotics, 1% B27 (Invitrogen), 2 µM retinoic acid (RA, Sigma), FGF10 and KAAD-Cyclopamine. […]
At each stage, cultures were washed with PBS, fixed for 10-15 min at room temperature in 4% formaldehyde and rinsed several times. […] Immunocytochemistry was performed for the detection of Hnf1B using a donkey horse radish peroxidase (HRP)-conjugated secondary antibody and detected by the ABC complex (Dako) as previously described in Mfopou et al. 2007 (Stem Cells 25: 1156-1165). […]

## Cc1c[nH]c(/C=C2\C(=O)Nc3ccccc32)c1CCC(=O)O [SU5402]
SU5402 (250 nM) alone
  albumin expression by the pancreas endoderm stage: attenuates albumin expression
SU5402 added in PGT and PFG stages (FGF signalling inhibition)
  reduced hepatic differentiation: at least 50%
